Assay results published in patent US9149471B2, “Therapeutic agent for osteoporosis” (NATIONAL UNIV. CORP. TOKYO UNIV. OF AG. AND TECH, priority 2013, dated 2015).

How the values were obtained:
[1] = tested on: mouse model intratibially transplanted with a PC-3 human prostate cancer cell line; test: Abnormal bone formation and bone resorption in mouse model intratibially transplanted with PC-3 cells (μCT); assay type: in vivo; conditions: PC-3 in mouse tibia, 200 mg/kg/day orally every day for 10 days
Method: Inhibitory Effect on the Abnormal Bone Formation and Bone Resorption in the Mouse Model Intratibially Transplanted with a PC-3 Human Prostate Cancer Cell Line
The PC-3 human prostate cancer cell line was transplanted in the mouse tibia at 2×10^6 cells/15 μL. On the following day of transplantation, the mice were grouped so that the average body weight of the mice in each group was equal, and the compound IA was administered orally at 200 mg/kg/day every day for 10 days. On Day 11 after transplantation, the graft site was imaged by μCT and bone lesions were evaluated.

[2] = tested on: mouse model intratibially transplanted with an A549-luc-BM1 human lung cancer cell line; test: Abnormal bone formation and bone resorption in mouse model intratibially transplanted with A549-luc-BM1 cells (μCT); assay type: in vivo; conditions: A549-luc-BM1 in mouse tibia
Text: Inhibitory Effect on the Abnormal Bone Formation and Bone Resorption in the Mouse Model Intratibially Transplanted an A549-Luc-BM1 Human Lung Cancer Cell Line The A549 human lung cancer cell line in which the luciferase gene was transfected was transplanted in the left ventricle of nude mice, whereby the A549-luc-BM1 lung cancer cell line, which selectively metastasizes to and proliferates in the bone, was established. The cells thus obtained were transplanted in the mouse tibia at 2×10^6 cells/15 μL. On Day 7 after transplantation, the luciferase activity in the graft site was measured by an in-vivo imaging system. Subsequently, the mice were grouped so that the average luciferase activity of each group was equal, and the compound IA was administered orally at 200 mg/kg/day every day for 28 days. The treatment control group received subcutaneous administration of zoledronic acid, which is the third-generation bisphosphonate preparation, at 0.2 mg/kg/day twice a week. For the evaluation of bone lesions, the graft site was imaged by μCT on Day 36 after transplantation.

## CNC(=O)c1cc2c(Oc3ccc(NC(=S)NC(=O)Cc4ccccc4)cc3F)ccnc2cc1OC [Compound IA, 4-[2-fluoro-4-[[[(2-phenylacetyl)amino]thioxomethyl]amino]-phenoxy]-7-methoxy-N-methyl-6-quinolinecarboxamide]
[1]
  bone mass (inhibition of accelerated metabolic bone destruction and formation of abnormal brittle bone): maintained a normal level of bone mass
  death and body weight reduction: without causing death or reducing body weight
[1]; μCT on Day 11 after transplantation
  abnormal bone formation in the bone at the graft site (μCT, FIG. 1): evidently inhibited the abnormal bone formation
[2]; 200 mg/kg/day orally for 28 days
  inhibitory effect on abnormal bone metabolism (bone resorption and bone formation) compared with zoledronic acid: better inhibitory effect on abnormal bone metabolism (bone resorption and bone formation) than zoledronic acid
[2]; compound IA 200 mg/kg/day orally for 28 days, zoledronic acid 0.2 mg/kg/day s.c. twice a week, μCT on Day 36
  bone destruction and deformation at the graft site (μCT, FIG. 2): remarkably inhibited bone destruction and deformation
